The conditions of data set [1]: in humans; cited from earlier work.
Data set [2] is described as follows: Solubility of curcumin in ethanol. In kind it is physicochemical. As to the method: Impregnation of curcumin was conducted during the solvent exchange step. Excess curcumin was mixed with ethanol at room temperature (21° C.) and the undissolved curcumin was removed by filtration through a 0.45 μm pore-size filter. […] Afterwards, curcumin impregnated alcogels were dried using the same SC-CO2 drying conditions. Moreover, curcumin impregnation was investigated at 60° C., where higher solubility of curcumin in ethanol was obtained. Curcumin impregnated NSAs were called CUR-NSA-60° C. or CUR-NSA-RT depending on the impregnation temperature of 60° C. or room temperature (RT), respectively. Curcumin impregnated NSAs were stored in the freezer at −18° C. until characterized.
Impregnation capacity of the Curcumin-NSA-RT, where impregnation was performed at room temperature (21° C.), was 14.4 mg curcumin/g NSA (FIG. 5). When temperature of the impregnation increased to 60° C. […] Impregnation capacity was basically based on the solubility of curcumin in ethanol. […] The reason for a drastic increase in the impregnation capacity at 60° C. was the crystallization of curcumin in the saturated ethanolic curcumin solution on the surface of the NSA due to temperature drop to 40° C. during SC-CO2 drying. Crystallization from ethanol before the supercritical conditions reached led to the formation of long curcumin crystals (data not shown) which impacted the bioaccessibility of curcumin after simulated digestion (FIG. 10).

The conditions of data set [3]: 10 MPa and 40° C.; cited from earlier work.
Data set [4] in a line: Plasma CUR concentration over time after administration (bioavailability in rats). In kind it is in vivo. The settings on record: rat, 0-90 minutes after administration, read-out: maximum concentration of CUR in the plasma (Cmax). An excerpt: FIG. 12 depicts the bioavailability of curcumin (CUR) impregnated in the nanoporous starch aerogels in rats as analyzed in Example 2.
The plasma CUR concentration was monitored over time after administration.

A short description of data set [5]: Simulated gastrointestinal digestion (oral, gastric, intestinal); bioaccessible fraction. It is filed as in vitro ADME. The conditions noted are these: after simulated digestion.
Protocol: Gastrointestinal digestion of the samples was simulated adopting the method described by Minekus et al., 2014, Food & Function, 5(6), 1113-1124. Gastrointestinal digestion consisted of a sequential oral, gastric and intestinal digestion. Simulated salivary fluid (SSF), simulated gastric fluid (SGF) and simulated intestinal fluid (SIF) were prepared using a method reported previously (Minekus et al., 2014). […] The experiments were performed in 50 mL Erlenmeyer flasks. All digestion experiments were carried out in triplicate.
First, the sample (0.25 g) and SSF electrolyte stock solution (3.5 mL) were added into the flask. Then, 0.5 mL of α-amylase solution (750 U/mL) was included to have a final mixture with 75 U/mL. Subsequently, 25 μL of 0.3 M CaCl2 and 0.975 mL of deionized water were added. Finally, pH of the mixture was adjusted to pH 7.0 and the mixture was agitated in a shaking water bath (Precision SWB 27, Thermo Fisher Scientific, NH, USA) for 30 sec at 37° C. with a mixing rate of 150 rpm (Mennah-Govela & Bornhorst, 2016; Minekus et al., 2014).
After the oral digestion, oral bolus (5 mL) was mixed with SGF electrolyte stock solution (3.25 mL, pH 3.0) and the pH was adjusted to 3.0 using 1 M HCl (75 μL). […] The pH of the mixture was monitored and kept at pH 3.0 using 1 M HCl. […]

Usually bioavailability stands for the share of a dose that reaches the circulation, judged against a reference dose that is usually intravenous. With `COc1cc(/C=C/C(=O)CC(=O)/C=C/c2ccc(O)c(OC)c2)ccc1O` [crude curcumin, Curcumin (diferuloylmethane)], in data set [1], the bioavailability is given as around 1%. The “increase in the solubility of curcumin in ethanol” value in data set [2] (21 to 60° C.) came to 3.9 fold. Also, the “solubility of curcumin in ethanol” value in data set [2] (21° C.) was found to be 4.4±0.2 mg curcumin/mL ethanol; in data set [2] (60° C.) it was 17.2±0.3 mg curcumin/mL ethanol. For the same compound, the “solubility of curcumin in SC-CO2” value in data set [3] is around 0.4 ng/mL. Further, in data set [4], the Cmax came out at 500 nM. Further, the “concentration of curcumin in the bioaccessible fraction” value in data set [5] was 3000 ng/mL.

These data come from US11654119B2, “Bioavailable curcumin nanoparticles and methods of making” (NUtech Ventures, priority 2018, dated 2023).
